Data: patent US11806342B2, “Diiodohydroxyquinoline for the treatment of clostridium difficile infection” (Purdue Research Foundation, priority 2019, dated 2023)
Converted amounts (≈) assume the structure as drawn.

Key:
[1] = test system: Bifidobacterium breve HM-1120; assay: MIC against normal gut microflora, broth microdilution; assay type: cell-based; conditions: HM1120; Bifidobacterium breve HM-1120; read-out: MIC
Protocol: (§1) In vitro antimicrobial evaluation of diiodohydroxyquinoline against normal microflora. The broth microdilution assay was utilized to determine the MICs of DIHQ and control antibiotics against commensal organisms that compose he human gut microflora, as described elsewhere. A bacterial solution equivalent to 0.5 McFarland standard was prepared and diluted in BHIS broth (for Bifidobacterium and Bacteroides) or in MRS broth (for Lactobacillus) to achieve a bacterial concentration of about 5×10^5 CFU/mL. Then, drugs were added and serially diluted along the plates.

Bacteroides dorei HM-29 = assay: as above; assay type: cell-based; conditions: Phocaeicola dorei, HM29; Bacteroides dorei HM-29; read-out: MIC
Protocol: as §1

[2] = test system: Bifidobacterium angulatum HM-1189; assay: as above; assay type: cell-based; conditions: HM1189; Bifidobacterium angulatum HM-1189; read-out: MIC
Protocol: as §1

Bacteroides dorei HM-718 = assay: as above; assay type: cell-based; conditions: Phocaeicola dorei, HM718; Bacteroides dorei HM-718; read-out: MIC
Protocol: as §1

[3] = test system: Bifidobacterium adolescentis HM-633; assay: as above; assay type: cell-based; conditions: HM633; Bifidobacterium adolescentis HM-633; read-out: MIC
Protocol: as §1

[4] = test system: Bacteroides fragilis HM-711; assay: as above; assay type: cell-based; conditions: HM711; Bacteroides fragilis HM-711; read-out: MIC
Protocol: as §1

[5] = test system: Bacteroides fragilis HM-710; assay: as above; assay type: cell-based; conditions: HM710; Bacteroides fragilis HM-710; read-out: MIC
Protocol: as §1

[6] = test system: Lactobacillus crispatus HM-371; assay: as above; assay type: cell-based; conditions: HM371; Lactobacillus crispatus HM-371; read-out: MIC
Protocol: as §1

[7] = test system: Bacteroides fragilis HM-714; assay: as above; assay type: cell-based; conditions: HM714; Bacteroides fragilis HM-714; read-out: MIC
Protocol: as §1

Bacteroides dorei HM-719 = assay: as above; assay type: cell-based; conditions: Phocaeicola dorei, HM719; Bacteroides dorei HM-719; read-out: MIC
Protocol: as §1

[8] = test system: Bifidobacterium breve HM-411; assay: as above; assay type: cell-based; conditions: HM411; Bifidobacterium breve HM-411; read-out: MIC
Protocol: as §1

Bacteroides dorei HM-717 = assay: as above; assay type: cell-based; conditions: Phocaeicola dorei, HM717; Bacteroides dorei HM-717; read-out: MIC
Protocol: as §1

[9] = test system: Lactobacillus casei ATCC 334; assay: as above; assay type: cell-based; conditions: Lacticaseibacillus casei, ATCC334; Lactobacillus casei ATCC 334; read-out: MIC
Protocol: as §1

[10] = test system: Bifidobacterium longum HM-847; assay: as above; assay type: cell-based; conditions: HM847; Bifidobacterium longum HM-847; read-out: MIC
Protocol: as §1

[11] = test system: Bacteroides fragilis HM-709; assay: as above; assay type: cell-based; conditions: HM709; Bacteroides fragilis HM-709; read-out: MIC
Protocol: as §1

[12] = test system: Bifidobacterium longum HM-845; assay: as above; assay type: cell-based; conditions: HM845; Bifidobacterium longum HM-845; read-out: MIC
Protocol: as §1

[13] = test system: Lactobacillus reuteri HM-102; assay: as above; assay type: cell-based; conditions: Limosilactobacillus reuteri, HM102; Lactobacillus reuteri HM-102; read-out: MIC
Protocol: as §1

C. difficile P11 [14] = assay: MIC and MBC, broth microdilution; assay type: cell-based, Clostridium difficile; conditions: Clostridioides difficile, C. difficile P11; for MBC: read-out: MBC
Protocol: (§2) MIC50 and MIC90 are the minimum concentration of each agent that inhibited growth of 50% and 90% of the tested isolates, respectively. The minimum bactericidal concentration (MBC) of these drugs was tested by plating 5 μL from wells with no growth onto BHIS agar plates. The MBC was categorized as the lowest concentration that reduced bacterial growth by 99.9% MIC50 and MIC90 are the minimum concentration of each agent that inhibited the growth of 50% and 90% of the tested isolates, respectively. The minimum bactericidal concentration (MBC) of these drugs was tested by plating 5 μL from wells with no growth onto BHIS agar plates. The MBC was categorized as the lowest concentration that reduced bacterial growth by 99.9% [29-31].

C. difficile ATCC 43598 = assay: MIC and MBC, broth microdilution; assay type: cell-based, Clostridium difficile; conditions: Clostridioides difficile, ATCC43598, C. difficile ATCC 43598
Protocol: as §2

C. difficile NR-49290 = assay: MIC and MBC, broth microdilution; assay type: cell-based, Clostridium difficile; conditions: Clostridioides difficile, NR49290, C. difficile NR-49290; for MBC: read-out: MBC
Protocol: as §2

C. difficile P2 = assay: MIC and MBC, broth microdilution; assay type: cell-based, Clostridium difficile; conditions: Clostridioides difficile, C. difficile P2; for MBC: read-out: MBC
Protocol: as §2

[15] = test system: C. difficile ATCC BAA-1870; assay: MIC and MBC, broth microdilution; assay type: cell-based, Clostridium difficile; conditions: Clostridioides difficile, ATCCBAA1870, C. difficile ATCC BAA-1870
Protocol: as §2

C. difficile I1 = assay: MIC and MBC, broth microdilution; assay type: cell-based, Clostridium difficile; conditions: Clostridioides difficile, C. difficile I1
Protocol: as §2

C. difficile NR-49277 = assay: MIC and MBC, broth microdilution; assay type: cell-based, Clostridium difficile; conditions: Clostridioides difficile, NR49277, C. difficile NR-49277
Protocol: as §2

C. difficile P8 = assay: MIC and MBC, broth microdilution; assay type: cell-based, Clostridium difficile; conditions: Clostridioides difficile, C. difficile P8
Protocol: as §2

C. difficile P11 [16] = assay: Checkerboard assay, DIHQ with metronidazole or vancomycin; assay type: cell-based, Clostridium difficile
Protocol: (§3) Interactions between diiodohydroxyquinoline and the anticlostridial drugs (metronidazole and vancomycin) against Clostridium difficile clinical isolates. […] The fractional inhibitory concentration index (ΣFIC) was calculated for each interaction. Interactions where the ΣFIC index was ≤0.5 were categorized as synergistic (SYN).

C. difficile ATCC 1801 = assay: as above; assay type: cell-based, Clostridium difficile
Protocol: as §3

C. difficile P19 = assay: as above; assay type: cell-based, Clostridium difficile
Protocol: as §3

C. difficile P30 = assay: as above; assay type: cell-based, Clostridium difficile
Protocol: as §3

For `CCc1c(Cl)c(O)c(Cl)c(O)c1C(=O)O[C@H]1[C@H](O)[C@H](OC)[C@H](OC/C2=C\C=C\C[C@H](O)/C(C)=C/[C@H](CC)[C@@H](O[C@@H]3OC(C)(C)[C@@H](OC(=O)C(C)C)[C@H](O)[C@@H]3O)/C(C)=C/C(C)=C/C[C@@H]([C@@H](C)O)OC2=O)O[C@@H]1C` [Fidaxomicin, fidaxomicin], the MIC [1] was at most 1 µg/mL, the MIC (Bacteroides dorei HM-29) was over 128 µg/mL and the MIC [2] was at most 1 µg/mL. The MIC (Bacteroides dorei HM-718) was over 128 µg/mL, the MIC [3] was at most 1 µg/mL and the MIC [4] was over 128 µg/mL. It also gave an MIC [5] of over 128 µg/mL, an MIC [6] of over 128 µg/mL and an MIC [7] of over 128 µg/mL. It also gave an MIC (Bacteroides dorei HM-719) of 128 µg/mL (≈ 121 µM), an MIC [8] of 2 µg/mL (≈ 1.89 µM) and an MIC (Bacteroides dorei HM-717) of over 128 µg/mL. The MIC [9] was over 128 µg/mL, the MIC [10] was at most 1 µg/mL and the MIC [11] was over 128 µg/mL. The MIC [12] was at most 1 µg/mL, the MIC [13] was over 128 µg/mL and the MBC (C. difficile P11 [14]) was 0.03 µg/mL (≈ 0.0284 µM). For the same molecule, the MIC (C. difficile P11 [14]; read-out: MIC) was 0.03 µg/mL (≈ 0.0284 µM), the MBC (C. difficile ATCC 43598; read-out: MBC) was 0.015 µg/mL (≈ 0.0142 µM) and the MIC (C. difficile ATCC 43598; read-out: MIC) was 0.015 µg/mL (≈ 0.0142 µM). For the same molecule, the MBC (C. difficile NR-49290) was 0.015 µg/mL (≈ 0.0142 µM), the MIC (C. difficile NR-49290; read-out: MIC) was 0.015 µg/mL (≈ 0.0142 µM) and the MBC (C. difficile P2) was 0.03 µg/mL (≈ 0.0284 µM). For the same molecule, the MIC (C. difficile P2; read-out: MIC) was 0.03 µg/mL (≈ 0.0284 µM), the MBC ([15]; read-out: MBC) was 0.03 µg/mL (≈ 0.0284 µM) and the MIC ([15]; read-out: MIC) was 0.03 µg/mL (≈ 0.0284 µM). It also gave an MBC (C. difficile I1; read-out: MBC) of 0.007 µg/mL (≈ 0.00662 µM), an MIC (C. difficile I1; read-out: MIC) of 0.007 µg/mL (≈ 0.00662 µM) and an MBC (C. difficile NR-49277; read-out: MBC) of 0.03 µg/mL (≈ 0.0284 µM). It also gave an MIC (C. difficile NR-49277; read-out: MIC) of 0.03 µg/mL (≈ 0.0284 µM), an MBC (C. difficile P8; read-out: MBC) of 0.015 µg/mL (≈ 0.0142 µM) and an MIC (C. difficile P8; read-out: MIC) of 0.015 µg/mL (≈ 0.0142 µM).
In the case of `Cc1ncc([N+](=O)[O-])n1CCO` [Metronidazole, metronidazole], the MIC [1] is reported as at most 1 µg/mL, the MIC (Bacteroides dorei HM-29) is reported as at most 1 µg/mL and the MIC [2] is reported as at most 1 µg/mL. It also gave an MIC (Bacteroides dorei HM-718) of at most 1 µg/mL, an MIC [3] of at most 1 µg/mL and an MIC [4] of at most 1 µg/mL. The MIC [5] was 2 µg/mL (≈ 11.7 µM), the MIC [6] was over 128 µg/mL and the MIC [7] was at most 1 µg/mL. For the same molecule, the MIC (Bacteroides dorei HM-719) was at most 1 µg/mL, the MIC [8] was 2 µg/mL (≈ 11.7 µM) and the MIC (Bacteroides dorei HM-717) was at most 1 µg/mL. The MIC [9] was 16 µg/mL (≈ 93.5 µM), the MIC [10] was at most 1 µg/mL and the MIC [11] was 2 µg/mL (≈ 11.7 µM). The MIC [12] was at most 1 µg/mL, the MIC [13] was over 128 µg/mL and the “MIC of metronidazole combined with DIHQ” value (C. difficile P11 [16]; C. difficile P11) was 0.03 µg/mL. For the same molecule, the MIC (C. difficile P11 [16]; Clostridioides difficile, C. difficile P11, Table 3, read-out: MIC alone) was 0.25 µg/mL, the “MIC of metronidazole combined with DIHQ” value (C. difficile ATCC 1801; C. difficile ATCC 1801) was 0.03 µg/mL and the MIC (C. difficile ATCC 1801; Clostridioides difficile, ATCC1801, C. difficile ATCC 1801, Table 3, read-out: MIC alone) was 0.25 µg/mL. For the same molecule, the “MIC of metronidazole combined with DIHQ” value (C. difficile P19; C. difficile P19) was 0.06 µg/mL, the MIC (C. difficile P19; Clostridioides difficile, C. difficile P19, Table 3, read-out: MIC alone) was 0.5 µg/mL and the “MIC of metronidazole combined with DIHQ” value (C. difficile P30; C. difficile P30) was 0.06 µg/mL. The MIC (C. difficile P30; Clostridioides difficile, C. difficile P30, Table 3, read-out: MIC alone) was 0.5 µg/mL, the MBC (C. difficile P11 [14]) was 0.25 µg/mL (≈ 1.46 µM) and the MBC (C. difficile NR-49290) was 0.25 µg/mL (≈ 1.46 µM). For the same molecule, the MBC (C. difficile P2) was 0.25 µg/mL (≈ 1.46 µM).
